System: AsPC1 tumors
Test: Efficacy study in mice bearing subcutaneous AsPC1 tumors (tumor volume)
Assay type: in vivo, SWISS Nude mice
Conditions: single treatments; FOLFIRINOX (Group 2) or ^177Lu-IPN01087 20 MBq/mouse IV weekly x3 (Group 3); FIG. 2
Method: Example 1: Efficacy Study on Animals Induced with AsPC1 Cells
The AsPC1 cell line was isolated from a metastatic site (ascites) from a patient (Chen WH. et al., In Vitro. 1982 January; 18(1):24-34).
Tumor cells were grown as monolayer at 37° C. in a humidified atmosphere (5% C02, 95% air). The culture medium is RPMI 1640 containing glutamax supplemented with 10% heat inactivated fetal bovine serum, sodium pyruvate and hepes. For experimental use, tumor cells were detached from the culture flask using accutase and neutralized by addition of complete culture medium. The cells were counted and their viability was assessed by 0.25% trypan blue exclusion assay. Two frozen pellets of AsPC-1 tumor cells were prepared: one frozen cell pellet prepared during the in-vitro cell culture, and one frozen cell pellet prepared using the cell suspension used for tumor induction in mice.
One hundred fifty (150) healthy female SWISS Nude mice (Crl:NU(Ico)-Foxn1 nu), 7 weeks old at reception, were obtained from Charles River.
Tumors were induced by subcutaneous injection of ten million (107) AsPC-1 cells in 200 μL of RPMI 1640 medium containing matrigel (50:50, v:v, ref: 356237, BD Biosciences, France) into the right flank (in the axis of the heart) of 150 female animals. […]

^177Lu-zalsenertant tetraxetan [^177Lu-IPN01087]
AsPC-1 tumor growth, antitumor effect compared to the vehicles: produced an antitumor effect

From patent US20240207276A1, “COMBINATION COMPRISING A NEUROTENSIN RECEPTOR BINDING COMPOUND AND FOLFIRINOX” (Fusion Pharmaceuticals Inc., priority 2021, published 2024)
